What was measured:
Test in all cases: Bliss excess, mean over the matrix (fraction); higher = more synergy
[1] = system: A4-Fuk (B-Lymphoblastic Leukemia)
Outline: (§1)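 After 24 hours at 37°C and 5% CO2 in 1536-well plates, cells in DMEM/F12 or RPMI plus 10% FBS received two-drug dose matrices for 72 hours. Viability came from CellTiter-Glo 2.0 luminescence and was scaled as inhibition, anchored at 0 by vehicle wells and at 1 by blank wells. Combination Emax is taken as the second-highest inhibition in the matrix, and Bliss excess as the observed combination effect less EA + EB − EA·EB, with EA and EB the single-agent effects.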

COLO-679 (Melanoma) = system: COLO-679 (Melanoma)
Outline: as §1

[2] = system: Ca-Ski (Cervical Carcinoma)
Outline: as §1

EW-1 (Ewing's Sarcoma) = system: EW-1 (Ewing's Sarcoma)
Outline: as §1

[3] = system: G-401 (Other Solid Carcinomas)
Outline: as §1

[4] = system: HAL-01 (B-Lymphoblastic Leukemia)
Outline: as §1

[5] = system: HCC1937 (Breast Carcinoma)
Outline: as §1

Hey (Ovarian Carcinoma) = system: Hey (Ovarian Carcinoma)
Outline: as §1

[6] = system: KOPN-8 (B-Lymphoblastic Leukemia)
Outline: as §1

[7] = system: MDA-MB-453 (Breast Carcinoma)
Outline: as §1

[8] = system: ML-2 (Acute Myeloid Leukemia)
Outline: as §1

[9] = system: MOLT-4 (T-Lymphoblastic Leukemia)
Outline: as §1

[10] = system: MV-4-11 (Acute Myeloid Leukemia)
Outline: as §1

[11] = system: NCI-H1838 (Lung Adenocarcinoma)
Outline: as §1

[12] = system: NCI-H1993 (Lung Adenocarcinoma)
Outline: as §1

[13] = system: NCI-H650 (Lung Adenocarcinoma)
Outline: as §1

[14] = system: OE33 (Esophageal Adenocarcinoma)
Outline: as §1

SK-N-AS (Neuroblastoma) = system: SK-N-AS (Neuroblastoma)
Outline: as §1

[15] = system: SNU-387 (Hepatocellular Carcinoma)
Outline: as §1

[16] = system: SW872 (Other Solid Carcinomas)
Outline: as §1

Structure (SMILES) | Bliss excess [1] | Bliss excess (COLO-679 (Melanoma)) | Bliss excess [2] | Bliss excess (EW-1 (Ewing's Sarcoma)) | Bliss excess [3] | Bliss excess [4] | Bliss excess [5] | Bliss excess (Hey (Ovarian Carcinoma)) | Bliss excess [6] | Bliss excess [7] | Bliss excess [8] | Bliss excess [9] | Bliss excess [10] | Bliss excess [11] | Bliss excess [12] | Bliss excess [13] | Bliss excess [14] | Bliss excess (SK-N-AS (Neuroblastoma)) | Bliss excess [15] | Bliss excess [16]
Cn1cnc2c(F)c(Nc3ccc(Br)cc3Cl)c(C(=O)NOCCO)cc21 [Selumetinib] + CC(C)n1c(=O)n(C)c2cnc3cc(F)c(-c4ccc(OCCCN5CCCCC5)nc4)cc3c21 [AZD1390] (first compound max 10 µM, 7x7, partner max 0.3 µM) | 0.0335 | -0.0416 | -0.0032 | -0.0419 | -0.0623 | 0.0741 | -0.0161 | -0.0378 | 0.0131 | -0.0148 | -0.0506 | 0.0535 | -0.0719 | -0.0514 | -0.0741 | -0.0329 | -0.0277 | -0.019 | -0.0512 | 0.0169
Cn1cnc2c(F)c(Nc3ccc(Br)cc3Cl)c(C(=O)NOCCO)cc21 [Selumetinib] + CCN(CCO)CCCOc1ccc2c(Nc3cc(CC(=O)Nc4cccc(F)c4)[nH]n3)ncnc2c1 [AZD2811] (first compound max 10 µM, 7x7, partner max 1 µM) | 0.176 | -0.0381 | 0.0553 | 0.0332 | 0.0143 | 0.0385 | 0.016 | -0.0165 | 0.0253 | -0.026 | -0.0371 | 0.0174 | -0.04 | -0.0363 | 0.0327 | 0.0056 | -0.0246 | -0.0108 | -0.0412 | -0.01
Cn1cnc2c(F)c(Nc3ccc(Br)cc3Cl)c(C(=O)NOCCO)cc21 [Selumetinib] + C[C@@H]1COCCN1C2=NC(=NC(=C2)C3(CC3)[S@](=N)(=O)C)C4=C5C=CNC5=NC=C4 [AZD6738] (first compound max 10 µM, 7x7, partner max 10 µM) | -0.0481 | -0.0526 | 0.0396 | 0.0014 | 0.0257 | -0.0541 | 0.0414 | -0.0014 | -0.154 | -0.05 | -0.0373 | -0.0181 | -0.0369 | -0.101 | -0.0274 | 0.0926 | -0.018 | -0.0048 | -0.0126 | 0.0211
CC(=O)Nc1cccc(-n2c(=O)n(C3CC3)c(=O)c3c(Nc4ccc(I)cc4F)n(C)c(=O)c(C)c32)c1 [Trametinib] + Cc1nc(-c2cn3c(n2)-c2ccc(-c4cnn(C(C)(C)C(N)=O)c4)cc2OCC3)n(C(C)C)n1 [Taselisib] (first compound max 1 µM, 7x7, partner max 10 µM) | 0.127 | -0.0331 | 0.184 | 0.038 | 0.0082 | 0.147 | -0.0125 | 0.0984 | -0.101 | -0.0279 | 0.197 | 0.186 | 0.27 | 0.0104 | 0.0556 | 0.136 | 0.17 | 0.0104 | 0.185 | 0.0847
CC1(C)CCC(CN2CCN(c3ccc(C(=O)NS(=O)(=O)c4ccc(NCC5CCOCC5)c([N+](=O)[O-])c4)c(Oc4cnc5[nH]ccc5c4)c3)CC2)=C(c2ccc(Cl)cc2)C1 [Venetoclax] + C1CN(CCC1(C(=O)N[C@@H](CCO)C2=CC=C(C=C2)Cl)N)C3=NC=NC4=C3C=CN4 [Capivasertib] (first compound max 1 µM, 7x7, partner max 3 µM) | -0.035 | -0.0357 | -0.0153 | -0.0019 | -0.105 | -0.0206 | -0.0227 | -0.0504 | -0.0009 | -0.0022 | 0.03 | 0.0315 | 0.0474 | -0.0097 | -0.001 | -0.0395 | -0.0059 | -0.0237 | -0.0554 | -0.0588
CC1(C)CCC(CN2CCN(c3ccc(C(=O)NS(=O)(=O)c4ccc(NCC5CCOCC5)c([N+](=O)[O-])c4)c(Oc4cnc5[nH]ccc5c4)c3)CC2)=C(c2ccc(Cl)cc2)C1 [Venetoclax] + C=CCn1c(=O)c2cnc(Nc3ccc(N4CCN(C)CC4)cc3)nc2n1-c1cccc(C(C)(C)O)n1 [AZD1775] (first compound max 1 µM, partner max 1 µM) | -0.0009 | -0.053 | 0.0449 | -0.0191 | -0.0898 | 0.0564 | -0.0744 | -0.0821 | -0.0079 | 0.0707 | -0.0553 | 0.117 | -0.072 | -0.0334 | 0.0027 | -0.0422 | -0.0144 | -0.07 | -0.0041 | 0.005
CC1(C)CCC(CN2CCN(c3ccc(C(=O)NS(=O)(=O)c4ccc(NCC5CCOCC5)c([N+](=O)[O-])c4)c(Oc4cnc5[nH]ccc5c4)c3)CC2)=C(c2ccc(Cl)cc2)C1 [Venetoclax] + CCN(CCO)CCCOc1ccc2c(Nc3cc(CC(=O)Nc4cccc(F)c4)[nH]n3)ncnc2c1 [AZD2811] (first compound max 1 µM, 7x7, partner max 1 µM) | 0.0781 | -0.0608 | 0.0738 | 0.0317 | -0.0473 | -0.0133 | -0.0394 | 0.0408 | 0.0169 | -0.0169 | 0.0167 | -0.0368 | 0.0071 | 0.0204 | -0.0002 | -0.0114 | -0.0188 | -0.0071 | -0.0422 | -0.0179
CC1(C)CCC(CN2CCN(c3ccc(C(=O)NS(=O)(=O)c4ccc(NCC5CCOCC5)c([N+](=O)[O-])c4)c(Oc4cnc5[nH]ccc5c4)c3)CC2)=C(c2ccc(Cl)cc2)C1 [Venetoclax] + CN(C)CCCOc1ccc(-c2ccc3ncc4c(c3c2)n(C2CCOCC2)c(=O)n4C)cn1 [AZD0156] (first compound max 1 µM, 7x7, partner max 1 µM) | 0.0004 | -0.0328 | 0.0221 | 0.0002 | -0.0712 | 0.0439 | -0.0566 | -0.0255 | -0.0498 | -0.0225 | -0.0728 | 0.0196 | -0.0446 | 0.0303 | -0.0681 | -0.0194 | -0.033 | -0.0469 | -0.028 | 0.0025
CC1(C)CCC(CN2CCN(c3ccc(C(=O)NS(=O)(=O)c4ccc(NCC5CCOCC5)c([N+](=O)[O-])c4)c(Oc4cnc5[nH]ccc5c4)c3)CC2)=C(c2ccc(Cl)cc2)C1 [Venetoclax] + COc1cc(Nc2ncc3c(n2)-c2ccc(Cl)cc2C(c2c(F)cccc2OC)=NC3)ccc1C(=O)O [Alisertib] (first compound max 1 µM, 7x7, partner max 10 µM) | -0.026 | 0.0194 | 0.0128 | 0.174 | -0.0135 | 0.121 | -0.0852 | -0.0449 | 0.036 | -0.0415 | 0.13 | -0.0938 | 0.0134 | -0.0183 | -0.029 | -0.0361 | 0.0221 | 0.0947 | -0.0456 | 0.0428
CC1(C)CCC(CN2CCN(c3ccc(C(=O)NS(=O)(=O)c4ccc(NCC5CCOCC5)c([N+](=O)[O-])c4)c(Oc4cnc5[nH]ccc5c4)c3)CC2)=C(c2ccc(Cl)cc2)C1 [Venetoclax] + C[C@@H]1COCCN1C2=NC(=NC(=C2)C3(CC3)[S@](=N)(=O)C)C4=C5C=CNC5=NC=C4 [AZD6738] (first compound max 1 µM, 7x7, partner max 10 µM) | 0.0028 | -0.0242 | -0.006 | -0.0224 | -0.0944 | 0.106 | -0.0587 | -0.0378 | 0.0289 | -0.0492 | 0.0694 | 0.0382 | -0.006 | -0.0508 | -0.0366 | -0.0839 | -0.0549 | -0.0222 | -0.0363 | 0.0001
CC1(C)CCC(CN2CCN(c3ccc(C(=O)NS(=O)(=O)c4ccc(NCC5CCOCC5)c([N+](=O)[O-])c4)c(Oc4cnc5[nH]ccc5c4)c3)CC2)=C(c2ccc(Cl)cc2)C1 [Venetoclax] + C[C@@H](Nc1cc(F)cc(F)c1)c1cc(C(=O)N(C)C)cc2c(=O)cc(N3CCOCC3)oc12 [AZD8186] (first compound max 1 µM, 7x7, partner max 3 µM) | -0.0046 | 0.0001 | -0.0259 | -0.001 | -0.0275 | 0.0246 | -0.0179 | -0.0286 | -0.0088 | -0.0313 | -0.0292 | -0.0204 | 0.0641 | -0.031 | 0.0036 | -0.0257 | -0.0169 | -0.0347 | -0.0264 | -0.0247
CC1(C)CCC(CN2CCN(c3ccc(C(=O)NS(=O)(=O)c4ccc(NCC5CCOCC5)c([N+](=O)[O-])c4)c(Oc4cnc5[nH]ccc5c4)c3)CC2)=C(c2ccc(Cl)cc2)C1 [Venetoclax] + Cc1cc2ncnn2cc1Nc1ncc2c(n1)n(C1CCOCC1)c(=O)n2C [AZD7648] (first compound max 1 µM, 7x7, partner max 10 µM) | -0.0185 | -0.0363 | -0.0061 | -0.008 | -0.061 | -0.022 | -0.0733 | -0.0604 | 0.0037 | -0.0037 | 0.0057 | 0.0142 | 0.0477 | 0.0538 | -0.0583 | -0.0489 | -0.0449 | -0.0485 | -0.0413 | -0.0599
CC1(C)CCC(CN2CCN(c3ccc(C(=O)NS(=O)(=O)c4ccc(NCC5CCOCC5)c([N+](=O)[O-])c4)c(Oc4cnc5[nH]ccc5c4)c3)CC2)=C(c2ccc(Cl)cc2)C1 [Venetoclax] + Cn1cnc2c(F)c(Nc3ccc(Br)cc3Cl)c(C(=O)NOCCO)cc21 [Selumetinib] (first compound max 1 µM, 7x7, partner max 3 µM) | 0.0163 | -0.0203 | -0.0038 | -0.0483 | -0.0264 | 0.0009 | -0.0392 | -0.0238 | 0.113 | -0.0284 | 0.0747 | 0.021 | -0.0022 | -0.0013 | -0.0358 | -0.0217 | -0.0192 | 0.0083 | -0.0601 | -0.0158

Source: the supplement of paper PMC11061612
